The values below come from ChEMBL document CHEMBL3616443, “Synthesis and biological evaluation of ring A and/or C expansion and opening echinocystic acid derivatives for anti-HCV entry inhibitors” (2015).

SMILES strings stand for the structures. Calls of active or inactive are those of the source. The rule behind the calls is not given here.

Experiment [1] deals with Vesicular stomatitis virus. Nature of the experiment: Antiviral activity against VSV psuedoparticles infected in human Huh7 cells assessed as inhibition of virus entry at 1 to 5 uM using Bright Glo reagent after 72 hrs by Luciferase reporter gene assay. Type of experiment: functional, organism-based. As to conditions: Huh-7. For orientation: In a reporter assay the amount or activity of a reporter protein is the signal.

In experiment [2] the test system is Hepatitis C virus. Nature of the experiment: Antiviral activity against HCV psuedoparticles infected in human Huh7 cells assessed as inhibition of virus entry at 1 to 5 uM using Bright Glo reagent after 72 hrs by Luciferase reporter gene assay. Type of experiment: functional.
In experiment [3] the test system is Hepatitis C virus. The experiment is described as follows: Antiviral activity against HCV psuedoparticles infected in human Huh7 cells assessed as inhibition of virus entry at 10 uM using Bright Glo reagent after 72 hrs by Luciferase reporter gene assay. Type of experiment: functional, Hepacivirus hominis, Huh-7. On the set-up: scale not given: the % may be the effect or the level left.

For the molecule `CC1(C)CC[C@]2(C(=O)O)[C@H](O)C[C@]3(C)[C@H](C(=O)OC[C@@H]4[C@@]5(C)CCC(=O)OC(C)(C)[C@@H]5CC[C@]43C)[C@@H]2C1`, in experiment [1], the result was inactive. For the same molecule, the result with Hepatitis C virus [2] (Hepacivirus hominis, Huh-7) was Active.
Turning to `C[C@H]1[C@H](C)CC[C@]2(C(=O)O)CC[C@]3(C)C(=CC[C@@H]4[C@@]5(C)CC[C@H](O)C(C)(C)[C@@H]5CC[C@]43C)[C@H]12` [URSOLIC ACID], in the experiment on Hepatitis C virus [3], the Activity amounted to 30%.
For `CC1(C)CC[C@]2(C(=O)O)[C@H](O)C[C@]3(C)[C@H](C(=O)C[C@@H]4[C@@](C)(CCC(=O)O)[C@H](C(C)(C)O)CC[C@]43C)[C@@H]2C1`, the outcome in experiment [1] was inactive. The result in the experiment with Hepatitis C virus [2] (Hepacivirus hominis, Huh-7) was Active.
`COC(=O)[C@]12CCC(C)(C)C[C@H]1[C@H]1OC(=O)C[C@@H]3[C@@]4(C)CC[C@H](O)C(C)(C)[C@@H]4CC[C@@]3(C)[C@]1(C)C[C@H]2O`: the result in experiment [1] was inactive. In addition, the outcome with Hepatitis C virus [2] (Hepacivirus hominis, Huh-7) was Active.
Take `CC1(C)CC[C@]2(C(=O)O)[C@H](O)C[C@]3(C)C(=CC[C@@H]4[C@@]5(C)CC[C@H](O)C(C)(C)[C@@H]5CC[C@]43C)[C@H]2C1` [ECHINOCYSTIC ACID]: the Activity with Hepatitis C virus [2] was determined as 90%.
Consider `COC(=O)[C@]12CCC(C)(C)C[C@H]1[C@H]1C(=O)OC[C@@H]3[C@@]4(C)CC[C@H](O)C(C)(C)[C@@H]4CC[C@@]3(C)[C@]1(C)C[C@H]2O`, for which the outcome in experiment [1] was inactive. Also, the result with Hepatitis C virus [2] (Hepacivirus hominis, Huh-7) was Active.
For `CC1(C)CC[C@]2(C(=O)O)[C@H](O)C[C@]3(C)[C@H](C(=O)C=C4[C@@]5(C)CC[C@H](O)C(C)(C)[C@@H]5CC[C@]43C)[C@@H]2C1` the same measures were “inactive” and “Active”.
As to `CC1(C)CC[C@]2(C(=O)O)[C@H](O)C[C@]3(C)[C@H](OC(=O)C[C@@H]4[C@@](C)(CCC(=O)O)[C@H](C(C)(C)O)CC[C@]43C)[C@@H]2C1`, the outcome in experiment [1] was inactive. In addition, the result with Hepatitis C virus [2] (Hepacivirus hominis, Huh-7) was Active.
On the same counts, the results for `CC1(C)CC[C@]2(CO)[C@H](O)C[C@]3(C)[C@H](C(O)C[C@@H]4[C@@](C)(CCCO)[C@H](C(C)(C)O)CC[C@]43C)[C@@H]2C1` (stereo not given in full) are “inactive” and “Active”.
For `CC1(C)CC[C@]2(C(=O)O)[C@H](O)C[C@]3(C)[C@H](OC(=O)C[C@@H]4[C@@]5(C)CCC(=O)OC(C)(C)[C@@H]5CC[C@]43C)[C@@H]2C1` the same measures were “inactive” and “Active”.
For the molecule `CC1(C)CC[C@]2(CO)[C@H](O)C[C@@](C)([C@]3(C)CC[C@H]4C(C)(C)[C@@H](O)CC[C@]4(C)C3CCO)C(O)[C@@H]2C1` (stereo not given in full), in experiment [1], the outcome was inactive. For the same molecule, the outcome with Hepatitis C virus [2] (Hepacivirus hominis, Huh-7) was Active.
For `CC1(C)CC[C@]2(C(=O)O)[C@H](O)C[C@]3(C)[C@H](C(=O)C[C@@H]4[C@@]5(C)CCC(=O)OC(C)(C)[C@@H]5CC[C@]43C)[C@@H]2C1` the same measures were “inactive” and “Active”.
For `CC1(C)CC[C@]2(C(=O)O)[C@H](O)C[C@]3(C)[C@H](C(=O)OC[C@@H]4[C@@](C)(CCC(=O)O)[C@H](C(C)(C)O)CC[C@]43C)[C@@H]2C1` the same measures were “inactive” and “Active”.
For `CC1(C)CC[C@]2(C(=O)O)[C@H](O)C[C@]3(C)[C@H](OC(=O)C[C@@H]4[C@@]5(C)CC[C@H](O)C(C)(C)[C@@H]5CC[C@]43C)[C@@H]2C1`, the outcome in experiment [1] was inactive. Also, the outcome in the experiment on Hepatitis C virus [2] (Hepacivirus hominis, Huh-7) was Active.
On the same counts, the results for `CC1(C)CC[C@]2(C(=O)O)[C@H](O)C[C@]3(C)[C@H](C(=O)OC[C@@H]4[C@@]5(C)CC[C@H](O)C(C)(C)[C@@H]5CC[C@]43C)[C@@H]2C1` are “inactive” and “Active”.
On to `C=C(C)[C@@H]1CC[C@]2(C(=O)O)CC[C@]3(C)[C@H](CC[C@@H]4[C@@]5(C)CC[C@H](O)C(C)(C)[C@@H]5CC[C@]43C)[C@@H]12` [BETULINIC ACID], for which the Activity with Hepatitis C virus [3] came out at 75%.
On the same count and under the same terms, with `CC1(C)[C@@H](O)CC[C@]2(C)[C@H]3C(=O)C=C4[C@@H]5C[C@@](C)(C(=O)O)CC[C@]5(C)CC[C@@]4(C)[C@]3(C)CC[C@@H]12` [ENOXOLONE] the figure was 5%.
